Source: patent US20260294849A1, “METHODS FOR TREATING CORNEAL INJURIES” (National Taiwan University, priority 2023, published 2026)
Entries after “also recorded” stand apart in the source; their conditions may differ. Structures can show the parent of a compound that is named as a salt.

How the values were obtained:
Assay type in all cases: in vivo, mice (nT/nG transgenic)
laser-injured cornea = experiment: Corneal observation (opacity, edema, ulcer formation, ocular surface) via gross images after laser ablation and intracameral injection; settings: for Ocular surface of the eye: Day 2 after laser ablation and intracameral injection, BSS group: mild inflammation and irritation; for Edema / Opacity / Ulcer formation: laser-injured cornea after treatment, single intracameral injection 0.5 μl, Day 2; for Edema: BSS group: mild edema; for Opacity: BSS group: slight opacity; for Ulcer formation: BSS group: slight ulcer formation
Excerpt: (§1) nT/nG transgenic mice (Jax #023035; the Jackson Laboratory), having a Cre-reporter allele comprising a cell nuclear-targeted tandem dimerTomato (tdTomato; an orange fluorescent protein) and an enhanced green fluorescent protein (EGFP) (Prigge, Wiley et al., 2013; “Nuclear double-fluorescent reporter for in vivo and ex vivo analyses of biological transitions in mouse nuclei.”), were used in the present study for investigating the cell density and the healing process in corneal endothelium. The mice were characterized in that, prior to Cre recombination, widespread fluorescence expression of tdTomato (localized to the cell nucleus) was observed; whereas following Cre recombination, nuclear-localized green fluorescence was detected. All procedures on mice were approved by and performed in accordance with the Institutional Animal Care and Use Committees of National Taiwan University.
(§2) To eliminate the corneal endothelial cells, the multiphoton femtosecond laser was employed to induce cell ablation due to its ability to precisely control cell ablation in time and space with minimal injury made to adjacent tissues (Rompolas, Deschene et al., 2012; “Live imaging of stem cell and progeny behaviour in physiological hair-follicle regeneration.”). Once the corneal endothelial cells needed to be removed were identified, laser ablation was performed on the selected area (50 μm×50 μm) with a 880 nm laser wavelength and a 500 mW laser power in a single scan, with repeatedly adjusting the laser along the z-axis to achieve optimal results.
(§3) Following laser ablation, the aforementioned drugs were intracamerally injected to the cornea of the mice immediately using a customized needle attached to a 5 μl syringe (Hamilton). To avoid the motion, a cotton swab was used to prop the eyeball during the intracameral injection above on the peripheral region of the cornea. Each eye was slowly applied with a single dose of 0.5 μl different drugs.
The test compound(s) was/were intracamerally administered to the mice following laser ablation of the cornea, and then the corneal opacity was initially evaluated via gross images of the cornea.

[1] = system: corneal endothelial cells; experiment: Corneal wound healing by multiphoton microscopy (intravital imaging) after laser ablation; settings: intracameral injection; for Corneal wound healing, Day 1: Day 1 after laser ablation, BSS group could not seal the wound defects; for Corneal wound healing, Day 2: Day 2 after laser ablation, BSS group: compromised integrity until Day 2
Excerpt: as §1
For live image acquisition, mice were anesthetized by intramuscular injection of 50-80 mg/kg Zoletil (Virbac). The corneal surface was anesthetized with 0.4% oxybuprocaine hydrochloride (Sigma) in saline. An eye holder was used to minimize artifacts during intravital imaging, as previously described (Wu, Wang et al., 2019; “Intravital multiphoton microscopic imaging platform for ocular surface imaging.”). Intravital imaging was performed using a laser wavelength of 880 nm for tdTomato excitation and a laser power of approximately 35 mW at the sample plane to optimize the image quality without photobleaching. A water-immersion 20×/NA1.0 objective lens (Olympus) was used to focus the laser light onto the eyes, after the laser light was reflected by the main dichroic mirror (Semrock). The tdTomato signals were spectrally separated using a bandpass filter of 585/40 nm (Semrock). To prevent dryness of the ocular surface during imaging, an eye gel (Vidisic Gel, Dr. Gerhard Mann Chem-Pharm) with a refractive index of 1.338 was used as an immersion medium on the cornea. Image stacks along the z-axis with a step size of 1 μm were acquired, and the dimensions of the images acquired in this study were 512×512 pixels.
as §2, §3
The efficacy of the tested drugs in promoting the corneal wound healing was investigated by a multiphoton microscopy analysis, in which changes in the wound site following drug injection was tracked.

[2] = system: corneal endothelial cells; experiment: Corneal endothelial cell density after laser ablation (confocal cell counting); settings: for Corneal endothelial cell density: day 2 after laser ablation, intracameral injection, means±SEM, Control 728.5 ± 55.01, BSS 633 ± 33.7; for Protection of the corneal endothelial cells against injuries: order: Formoterol Sulfate>Formoterol PG>Formoterol BG>Formoterol>THBP>Permethrin>Fenbutrazate>Levonordefrin>Encainide>Bhilawanol A
Excerpt: as §1, §2, §3
The mice were anesthesia and sacrificed on day 2 after laser ablation with the indicated treatments administered (as shown in FIGS. 1-3), and their eyes were enucleated and fixed in 4% paraformaldehyde (PFA) at 4° C. overnight. After dissecting the cornea from the eyeball, the cornea was cut into a four-petal shape, placed on glass slides, mounted with a mounting medium (Vector), and immobilized by using a coverslip. All the fluorescent images were acquired by a SP8 confocal microscope (Leica), with steps set at 1 μm per z-section for a 20× objective. The cell nuclear ware manually segmented by using spot plugin in Imaris (Oxford instruments). For each sample, a circle area with a diameter of 300 μm was selected to count the cell numbers, so as to quantify the cell density in different drug treatments.
All the experimental data were performed by Prism and represented as means±SEM. The statistical significance of difference between the experimental groups was evaluated by Student's t test. P values<0.05 were considered statistically significant.
The protective effect of the present compound(s) on the corneal endothelial cells against injuries was evaluated by counting the cell number and/or the density of the corneal endothelial cells, instead of the keratocytes in corneal stroma or the other cell populations in trabecular meshwork.

Compound	Ocular surface of the eye (laser-injured cornea)	Edema (laser-injured cornea)	Opacity (laser-injured cornea)	Ulcer formation (laser-injured cornea)	Corneal wound healing, Day 1 ([1]; 6 μM)	Corneal endothelial cell density [2]	Protection of the corneal endothelial cells against injuries [2]	Corneal wound healing, Day 2 ([1]; 30 μM (238.875 ng/kg))	Corneal wound healing, Day 2 ([1]; 6 μM)
2,2,4,4-Tetrahydroxybenzophenone [THBP]	maintained the ocular surface of the eye moist and transparent	No	No	No	accelerated wound healing and sealed the defects on Day 1	724 ± 12.8 cell number/the area of a circ	protected the corneal endothelial cells	–	–
CCCCCC/C=C\CCCCCCCc1cccc(O)c1O [Bhilawanol A]	maintained the ocular surface of the eye moist and transparent	No	No	No	–	674.3 ± 8 cell number/the area of a circ	protected the corneal endothelial cells	promoted wound healing on Day 2	–
COc1ccc(C(=O)Nc2ccccc2CCC2CCCCN2C)cc1 (stereo not drawn) [Encainide, reference compound]	maintained the ocular surface of the eye moist and transparent	No	No	No	–	690 ± 8.8 cell number/the area of a circ	protected the corneal endothelial cells	–	promoted wound healing on Day 2
CCC(C(=O)OCCN1CCOC(c2ccccc2)C1C)c1ccccc1 (stereo not drawn) [Fenbutrazate, reference compound]	maintained the ocular surface of the eye moist and transparent	No	slightly hazy spot formation; also recorded: Slight hazy	No	–	720.8 ± 14.9 cell number/the area of a circ	protected the corneal endothelial cells	–	promoted wound healing on Day 2
COc1ccc(CC(C)NCC(OC2O[C@H](C(=O)O)[C@@H](O)[C@H](O)[C@H]2O)c2ccc(O)c(NC=O)c2)cc1 (stereo partly drawn) [Formoterol BG, Formoterol Benzyl Glucuronide]	maintained the ocular surface of the eye moist and transparent	No	No	No	–	796 ± 24.9 cell number/the area of a circ	protected the corneal endothelial cells	–	promoted wound healing on Day 2
COc1ccc(C[C@@H](C)NC[C@H](O)c2ccc(O[C@@H]3O[C@H](C(=O)O)[C@@H](O)[C@H](O)[C@H]3O)c(NC=O)c2)cc1 [Formoterol PG, Formoterol Phenolic Glucuronide]	maintained the ocular surface of the eye moist and transparent	No	No	No	–	799.5 ± 23.56 cell number/the area of a circ	protected the corneal endothelial cells	–	promoted wound healing on Day 2
COc1ccc(C[C@@H](C)NC[C@H](O)c2ccc(OS(=O)(=O)O)c(NC=O)c2)cc1 [Formoterol Sulfate]	maintained the ocular surface of the eye moist and transparent	No	No	No	–	805.25 ± 22.3 cell number/the area of a circ	protected the corneal endothelial cells	–	promoted wound healing on Day 2
C[C@H](N)[C@H](O)c1ccc(O)c(O)c1 [Levonordefrin, reference compound]	maintained the ocular surface of the eye moist and transparent	No	No	No	accelerated wound healing and sealed the defects on Day 1	710.5 ± 41.7 cell number/the area of a circ	protected the corneal endothelial cells	–	–
CC1(C)C(C=C(Cl)Cl)C1C(=O)OCc1cccc(Oc2ccccc2)c1 (stereo not drawn) [Permethrin, reference compound]	maintained the ocular surface of the eye moist and transparent	No	No	No	–	721.8 ± 12.9 cell number/the area of a circ	protected the corneal endothelial cells	–	promoted wound healing on Day 2
